Reference: the NIST ThermoML archive (doi:10.1016/j.jct.2016.10.033)
± gives the expanded uncertainty stated by the source.

Legend:
[1] = refractive index (Na D-line) (dimensionless); settings: 103 kPa, Liquid, Standard Abbe refractometry
[2] = 103 kPa, Liquid, Vibrating tube method
[3] = xn = mol fraction of the nth substance listed; settings: 103 kPa, Liquid, Vibrating tube method, x1 = 1
[4] = refractive index (Na D-line) (dimensionless); xn = mol fraction of the nth substance listed; settings: 103 kPa, Liquid, Standard Abbe refractometry, x1 = 1

CO[Si](C)(C)OC [dimethoxydimethylsilane]
Settings | mass density, 298.15 K [kg/m3] | mass density, 303.15 K [kg/m3] | mass density, 308.15 K [kg/m3] | mass density, 313.15 K [kg/m3] | mass density, 318.15 K [kg/m3] | refractive index, 298.15 K | refractive index, 303.15 K | refractive index, 308.15 K | refractive index, 313.15 K | refractive index, 318.15 K
[1] | – | – | – | – | – | 1.36816 ± 0.004 | 1.36559 ± 0.004 | 1.36297 ± 0.004 | 1.36035 ± 0.004 | 1.35771 ± 0.004
[2] | 857.9 ± 0.41 | 852.05 ± 0.41 | 846.16 ± 0.41 | 840.22 ± 0.42 | 834.24 ± 0.42 | – | – | – | – | –

CO[Si](C)(OC)c1ccccc1 [dimethoxymethylphenylsilane]
Settings | mass density, 298.15 K [kg/m3] | mass density, 303.15 K [kg/m3] | mass density, 308.15 K [kg/m3] | mass density, 313.15 K [kg/m3] | mass density, 318.15 K [kg/m3] | refractive index, 298.15 K | refractive index, 303.15 K | refractive index, 308.15 K | refractive index, 313.15 K | refractive index, 318.15 K
[1] | – | – | – | – | – | 1.47763 ± 0.004 | 1.47528 ± 0.004 | 1.47293 ± 0.004 | 1.47061 ± 0.004 | 1.46825 ± 0.004
[2] | 1000.78 ± 0.41 | 996.13 ± 0.41 | 991.48 ± 0.41 | 986.81 ± 0.41 | 982.15 ± 0.41 | – | – | – | – | –

CO[Si](C)(OC)c1ccccc1 [dimethoxymethylphenylsilane] + C=C[Si](C)(OCC)OCC
Settings | mass density, 298.15 K [kg/m3] | mass density, 303.15 K [kg/m3] | mass density, 308.15 K [kg/m3] | mass density, 313.15 K [kg/m3] | mass density, 318.15 K [kg/m3] | refractive index, 298.15 K | refractive index, 303.15 K | refractive index, 308.15 K | refractive index, 313.15 K | refractive index, 318.15 K
[3] | 1000.78 ± 0.41 | 996.13 ± 0.41 | 991.48 ± 0.41 | 986.81 ± 0.41 | 982.15 ± 0.41 | – | – | – | – | –
[4] | – | – | – | – | – | 1.47763 ± 0.004 | 1.47528 ± 0.004 | 1.47293 ± 0.004 | 1.47061 ± 0.004 | 1.46825 ± 0.004

CO[Si](C)(OC)c1ccccc1 [dimethoxymethylphenylsilane] + C=C[Si](OC)(OC)OC
Settings | mass density, 298.15 K [kg/m3] | mass density, 303.15 K [kg/m3] | mass density, 308.15 K [kg/m3] | mass density, 313.15 K [kg/m3] | mass density, 318.15 K [kg/m3] | refractive index, 298.15 K | refractive index, 303.15 K | refractive index, 308.15 K | refractive index, 313.15 K | refractive index, 318.15 K
[3] | 1000.78 ± 0.41 | 996.13 ± 0.41 | 991.48 ± 0.41 | 986.81 ± 0.41 | 982.15 ± 0.41 | – | – | – | – | –
[4] | – | – | – | – | – | 1.47763 ± 0.004 | 1.47528 ± 0.004 | 1.47293 ± 0.004 | 1.47061 ± 0.004 | 1.46825 ± 0.004

CO[Si](C)(OC)c1ccccc1 [dimethoxymethylphenylsilane] + CCO[Si](C)(C)OCC
Settings | mass density, 298.15 K [kg/m3] | mass density, 303.15 K [kg/m3] | mass density, 308.15 K [kg/m3] | mass density, 313.15 K [kg/m3] | mass density, 318.15 K [kg/m3] | refractive index, 298.15 K | refractive index, 303.15 K | refractive index, 308.15 K | refractive index, 313.15 K | refractive index, 318.15 K
[3] | 1000.78 ± 0.41 | 996.13 ± 0.41 | 991.48 ± 0.41 | 986.81 ± 0.41 | 982.15 ± 0.41 | – | – | – | – | –
[4] | – | – | – | – | – | 1.47763 ± 0.004 | 1.47528 ± 0.004 | 1.47293 ± 0.004 | 1.47061 ± 0.004 | 1.46825 ± 0.004

CO[Si](C)(OC)c1ccccc1 [dimethoxymethylphenylsilane] + CO[Si](C)(C)OC
Settings | mass density, 298.15 K [kg/m3] | mass density, 303.15 K [kg/m3] | mass density, 308.15 K [kg/m3] | mass density, 313.15 K [kg/m3] | mass density, 318.15 K [kg/m3] | refractive index, 298.15 K | refractive index, 303.15 K | refractive index, 308.15 K | refractive index, 313.15 K | refractive index, 318.15 K
[3] | 1000.78 ± 0.41 | 996.13 ± 0.41 | 991.48 ± 0.41 | 986.81 ± 0.41 | 982.15 ± 0.41 | – | – | – | – | –
[4] | – | – | – | – | – | 1.47763 ± 0.004 | 1.47528 ± 0.004 | 1.47293 ± 0.004 | 1.47061 ± 0.004 | 1.46825 ± 0.004

CCO[Si](C)(C)OCC [dimethyldiethoxysilane]
Settings | mass density, [2] [kg/m3] | refractive index, [1]
293.15 K | 840.11 ± 0.41 | 1.38452 ± 0.004
298.15 K | 835.43 ± 0.41 | 1.38045 ± 0.004
303.15 K | 830.05 ± 0.42 | 1.37791 ± 0.004
308.15 K | 824.66 ± 0.42 | 1.37532 ± 0.004
313.15 K | 819.23 ± 0.42 | 1.37275 ± 0.004
318.15 K | 813.79 ± 0.42 | 1.37015 ± 0.004

C=C[Si](C)(OCC)OCC [methylvinyldiethoxysilane]
Settings | mass density, [2] [kg/m3] | refractive index, [1]
293.15 K | 862.21 ± 0.41 | 1.40033 ± 0.004
298.15 K | 856.25 ± 0.41 | 1.39751 ± 0.004
303.15 K | 851.09 ± 0.41 | 1.39501 ± 0.004
308.15 K | 845.89 ± 0.41 | 1.39249 ± 0.004
313.15 K | 840.71 ± 0.41 | 1.38997 ± 0.004
318.15 K | 835.44 ± 0.41 | 1.38742 ± 0.004

C=C[Si](OC)(OC)OC [trimethoxy(vinyl)silane]
Settings | mass density, 298.15 K [kg/m3] | mass density, 303.15 K [kg/m3] | mass density, 308.15 K [kg/m3] | mass density, 313.15 K [kg/m3] | mass density, 318.15 K [kg/m3] | refractive index, 298.15 K | refractive index, 303.15 K | refractive index, 308.15 K | refractive index, 313.15 K | refractive index, 318.15 K
[1] | – | – | – | – | – | 1.39022 ± 0.004 | 1.38775 ± 0.004 | 1.38535 ± 0.004 | 1.3829 ± 0.004 | 1.38046 ± 0.004
[2] | 965.69 ± 0.41 | 960.02 ± 0.41 | 954.26 ± 0.41 | 948.47 ± 0.41 | 942.63 ± 0.41 | – | – | – | – | –
